Laboratory results reported in US20100280987A1, “METHODS AND GENE EXPRESSION SIGNATURE FOR ASSESSING RAS PATHWAY ACTIVITY” (priority 2009, published 2010).
Entries after “also recorded” stand apart in the source; their conditions may differ.

Assays:
[1] = blood concentration of AZD6244 post-dose in mice; format: in vivo, CD-1 nude mice
RAS pathway signature = RAS pathway signature score in tumors after treatment in vivo; conditions: 7450 KP-model mice, 150 mpk, three doses 10 hours apart, tumors 4 hours post last dose; 150 mg/kg
Method: As a first step in the analysis of the RAS signatures, we assessed the coherency of the signatures across four cell line panels from lung, colon, breast, and lymphoid malignancies. The purpose of coherence analysis is to show the statistical significance of the difference between the “Up” and “Down” arms of the signature in a new dataset. Two correlation coefficients were calculated for all of the genes in both the Up and Down arms. First, the correlation between each gene in the Up arm and the average of all genes in the Up arm is calculated. Second, the anticorrelation between each gene in the Up arm and the average of all genes in the Down arm is calculated. This is repeated for genes in the Down arm. […] A Fisher exact test is calculated for correlation within and between arms of the signature to assess the significance of signature coherence in a new dataset. […] RAS pathway activity (or regulation) is summarized into a RAS signature score, which is calculated as: (mean expression of Up genes (Table 2a))—(mean expression of Down genes (Table 2b)). […]
The 7450 KP mice were treated with a small molecule MEK inhibitor, AZD6244 (Ohren et al., 2004, Nat. Struct. Mol. Biol. 11:119201197). […] RAS signature pathway signatures scores were calculated as previously described for each time point and plotted (FIG. 18).

MEK1 and MEK2 = conditions: purified enzyme, read-out: in vitro IC50 against purified enzyme; cited from earlier work
[2] = tested on: p53 loss of function and KRas mutant lung tumors (7450 KP-model); experiment: tumor progression in 7450 KP-model mice; format: in vivo; conditions: 7450 KP mice, after 4 weeks of treatment (data not shown)

- clearance post-dose ([1]; CD-1 nude mice): cleared quickly
- half-life in vivo ([1]; in vivo): short half-life
- blood concentration after the peak ([1]; mice (CD-1 nude mice), blood): decreased rapidly
SMILES: Cn1cnc2c(F)c(Nc3ccc(Br)cc3Cl)c(C(=O)NOCCO)cc21 [AZD6244]
- RAS pathway signature score in vivo at 4 hours post-dose (RAS pathway signature): down regulated; also recorded: down-regulated
- IC50 (MEK1 and MEK2): 10 to 14 nM
- tumor progression compared vehicle [2]: significantly halted tumor progression
